# Values of other authors as cited in patent US20260262632A1, “COMPOSITIONS AND METHODS FOR TANK-MIX SPRAY APPLICATION OF 1-MCP” (AGROFRESH INC., priority 2023, published 2026).
smiles,measurement,value
"CC1=CC1 [1-MCP, 1-Methylcyclopropene]",concentration above which gaseous 1-MCP is flammable,"> 13,300 ppm"
